Values quoted from earlier work, collected in patent US20240066097A1 (priority 2022, published 2024).
In brackets after ≈: the same amount, converted by molar mass.

Legend:
[1] = tested on: SARS coronaviruses
[2] = tested on: SARS coronaviruses; remark: listed apart in the source
[3] = in vivo
[4] = tested on: SARS-CoV-1

## Oc1cc(O)c2c(c1)O[C@@]1(c3ccc(O)c(O)c3)Oc3cc(O)c4c(c3[C@@H]2[C@H]1O)O[C@H](c1ccc(O)c(O)c1)[C@H](O)[C@H]4c1c(O)cc(O)c2c1O[C@H](c1ccc(O)c(O)c1)[C@H](O)C2 [Cinnamtannin B1]
[1]
  IC50: 28.4 µg/mL (≈ 32.8 µM)

## O=C(O[C@@H]1Cc2c(O)cc(O)cc2O[C@@H]1c1cc(O)c(O)c(O)c1)c1cc(O)c(O)c(O)c1 [EGCG, epigallocatechin gallate]
[1]
  IC50: 0.389 to 7.56 µg/mL

## COc1ccc([C@@H]2CC(=O)c3c(O)cc(O)cc3O2)cc1O [Hesperetin]
[1]
  IC50: 2.5 µg/mL (≈ 8.27 µM)

## O=c1c(O)c(-c2ccc(O)cc2)oc2cc(O)cc(O)c12 [Kaempferol]
[2]
  EC50 level of the flavonol: 10 µg/mL
[1]
  IC50: 62.50 to 125.00 µg/mL

## O=c1cc(-c2ccc(O)c(O)c2)oc2cc(O)cc(O)c12 [Luteolin]
[1]
  IC50: 5.72 µg/mL (≈ 20 µM)

## O=c1c(O)c(-c2cc(O)c(O)c(O)c2)oc2cc(O)cc(O)c12 [Myricetin]
[1]
  IC50: 0.86 µg/mL (≈ 2.7 µM)

## O=c1c(O)c(-c2ccc(O)c(O)c2)oc2cc(O)cc(O)c12 [Quercetin]
[2]
  EC50 level of the flavonol: 60 µg/mL
[1]
  IC50: 7.19 to 60 µg/mL

## [Ca+2] [calcium]
other
  dietary calcium absorption: up to −50%

## MBL
[3]
  half life: 72 to 170 h

B1: Urtica dioica Agglutinin (UDA) (protein, UniProt P11218 24-372, looked up)
Lectin/endochitinase 1: QRCGSQGGGGTCPALWCCSIWGWCGDSEPYCGRTCENKCWSGERSDHRCGAAVGNPPCGQDRCCSVHGWCGGGNDYCSGSKCQYRCSSSVRGPRVALSGNSTANSIGNVVVTEPLFDQMFSHRKDCPSQGFYSYHSFLVAAESFPAFGTIGDVATRKREVAAFLAHISQATSGERSDVENPHAWGLCHINTTTVTENDFCTSSDWPCAAGKKYSPRGPIQLTHNFNYGLAGQAIGEDLIQNPDLVEKDPIISFKTALWFWMSQHDNKPSCHDIVLNANSAANRIPNKGVIGNIISRAFGHDDFAVRSSSIGFYKRYCDMLGVSYGHDLKYWFDNTPSSEFQRIQMRVAA
[4]
  EC50: 1.3 µg/mL
